Assay results from patent US20170226560A1, “GOLD NANOPARTICLE-BASED HOMOGENEOUS COLORIMETRIC DIAGNOSTIC ASSAY FOR THE DETECTION OF PROTEASES AND PROTEASE INHIBITORS” (IMRA America, Inc., priority 2014, published 2017).
Ends that are not written are not given here.

System: trypsin
Test: Colloidal gold nanoparticle-based colorimetric assay for trypsin (hydrolytic cleavage of peptide substrate)
Format: biochemical
Conditions: 1000 nM peptide substrate, trypsin 200 pM, 20° C.
Protocol: Based on the design criteria for the peptide substrate mentioned above, a sequence of amino acids in the peptide substrate of SEQ ID NO: 1 Lys-Lys-Gly-Phe-Pro-Arg-Gly-Gly-Asp-Cys was used in an assay method patterned after FIG. 1a. Unless noted otherwise, all incubations and reactions reported in the present specification were conducted at 20° C. The final reaction volume in all experiments described in the present specification, unless noted otherwise, was 500 microliters and the gold nanoparticle concentration was 1 nM. […] Thus, in all of the described experiments the aggregation state of any gold nanoparticle solution could be measured after 30 minutes or less. […] All of these can be evaluated using the present inventive assay methods. […]
After confirming that the peptide substrate SEQ ID NO: 1 Lys-Lys-Gly-Phe-Pro-Arg-Gly-Gly-Asp-Cys did induce the aggregation of negative surface charged gold nanoparticles, we carried out another experiment of examining the ultraviolet-visible spectra of solutions of colloidal gold nanoparticles after they were added to solutions of peptide substrates that had been pre-exposed for different time periods of from 0 minutes (min) to 60 min to trypsin. […] The absorbance spectrum shifts back to a maximum at 520 nm±5 nm, non-aggregated nanoparticles, as the pre-exposure time increases. […]

Q: “KKGFPRGGDC [SEQ ID NO: 1, peptide substrate cleaved by trypsin; intact peptide aggregates negatively charged gold nanoparticles]” was tested. Which “time for complete hydrolytic cleavage of the peptide substrate by trypsin” value did it give?
A: Its value is “more than 60 min”.
